Results reported in patent publication US7271252B2, “Reagents for detecting efavirenz” (Roche Diagnostics Operations, Inc., priority 2003, dated 2007).
Where two headings read alike, the source gives them in different places.

Experiments:
HIV [1] = details: cited from earlier work
[2] = tested on: serum antibodies raised against efavirenz-KLH conjugate; assay: Competitive inhibition ELISA: binding of mouse serum antibody to N-linked BSA-efavirenz conjugate; parameters: species or system mice; details: free drug, serum of one mouse, OD450, FIG. 3
Experimental: The sera were titered for antibody activity via an antigen specific ELISA. Wells of a styrene 96-well plate were coated with efavirenz N-linked BSA conjugate 5 by placing 50 μL of a 0.1 μg/mL efavirenz-BSA conjugate solution into 0.1 M potassium carbonate, pH 9.2, in the wells and incubating the covered plate at 37° C. for 1 hour. The solution was removed, and the wells were immediately filled with a post coat solution consisting of 1% gelatin hydrolysate, 2% sucrose, 0.1 M Tris buffer, pH 7.4, and 0.15% TWEEN 20 (all reagents from Sigma Chemical Co.), covered and incubated as above. Subsequently, the plates were rinsed once with 2% sucrose and air-dried. Once dry, the plates were sealed into aluminum foil clad plastic bags with a desiccant and stored at 4° C. until used.
Titering consisted of preparing an initial 1:100 dilution of the sera in PBS-T, then seven serial 1:3 dilutions. […] Color that developed was read in a microplate reader equipped with a 450 nm filter. The color intensities were plotted versus the final serum dilutions, and the dilution point at which 50% of the maximum reading was obtained was recorded.
For determining competitive inhibition, plates treated as above were used. […] Serum dilutions of twice the concentration determined above were then prepared, and 25 μL was placed into each well of the column. […]

HIV [3] = details: cited from earlier work; remark: listed apart in the source
[4] = cited from earlier work
[5] = taken with other anti-HIV medicines

SMILES: O=C1Nc2ccc(Cl)cc2[C@@](C#CC2CC2)(C(F)(F)F)O1 [efavirenz]
- amount of HIV in the blood (viral load) (HIV [1]; efavirenz): lower the amount of HIV in the blood
- CD4 cell count (HIV [1]; [5]): increase their CD4 cell count
- patients' viral load (HIV [1]; [5]): reduce patients' viral load
- competitive inhibition of binding of serum antibodies to the drug conjugate absorbed to the microplate [2]: confers a competitive inhibition of binding
- virological failure, share of patients (HIV [3]; patients with low plasma levels of efavirenz, <1000 μg/L, 85 total patients): 50%
- virological failure, share of patients (HIV [3]; patients with plasma levels of efavirenz 1000-4000 μg/L or more than 4000 μg/L): 18-22%
- frequency of CNS toxicity at high versus mid plasma levels ([4]; efavirenz levels >4000 μg/L compared with 1000-4000 μg/L): approximately three times more frequent
- patients reporting central nervous system (CNS) side effects ([4]; human, in vivo): 20-40%
- patients who discontinue therapy because of severity or persistence of CNS side effects ([4]; human, in vivo): about 4%
